{
  "source": "paper PMC9131871",
  "about": "“Impact of Micropolymorphism Outside the Peptide Binding Groove in the Clinically Relevant Allele HLA-C*14 on T Cell Responses in HIV-1 Infection” (Journal of Virology, 2022)",
  "data": [
    {"target": "HLA-C*14:02 (Homo sapiens, UniProt P10321, A176E/A330V/A35S/A97T/C350S/D114A/D33S/L171W/L180R/L218V/M285V/M309V/M331V/P208H/Q277E/Q291P/R121W/R243W/S123F/S297R/S48A/T329A/T363A/V319A)", "experiment": "HLA stabilization assay on RMA-S-C1402 cells", "assay_type": "cell-based", "conditions": "100 μM peptide, 26°C 1 h then 37°C 3 h, MAb DT-9 staining, flow cytometry, triplicate assays", "description": "(§1) We next sought to confirm the HLA-C*14:02/C*14:03 restriction of the HIV-1 peptides identified by LC-MS/MS. First, we tested their ability to bind to HLA-C*14:02 or HLA-C*14:03 using HLA stabilization assays. Of the 25 HIV-1 peptides, three Env peptides, Env SI8, Env AM11, and Env VM9, are located in variable regions V2 and V3. In addition, Pol AF10, Pol PF8, Pol VWL9, and Env YI9 are located in regions where high sequence variation is reported in the LANL database. Therefore, we excluded these peptides from further analysis. The other 18 peptides were synthesized and tested for binding to HLA-C*14:02/C*14:03 by analyzing their ability to stabilize surface HLA expression on TAP-defective RMA-S cell lines expressing HLA-C*14:02 (RMA-S-C1402) or HLA-C*14:03 (RMA-S-C1403). These RMA-S cell lines express equivalent levels of HLA-C*14:02 and HLA-C*14:03 on the cell surface at 26°C, and surface HLA expression declines to very low levels when the cells are warmed to 37°C in the absence of exogenously added stabilizing peptides (Fig. 2A). Peptide binding was determined by evaluating whether HLA-I expression was stabilized in the presence of 100 μM peptide.\n(§2) FIG 2 HLA-C*14:02/14:03 binding of HIV-1 peptides eluted from NL4-3-infected .221-C1402 and .221-C1403 cells as assessed by HLA stabilization assay using RMA-S cell lines. (A) Histogram plots showing surface expression of HLA-C*14:02 or HLA-C*14:03 on RMA-S-C1402 or RMA-S-C1403 cells at 26°C and after cells cultured at 26°C had been warmed to 37°C for 3 h. MFI values of cells cultured at 26°C were 27.4 for HLA-C*14:02 and 28.1 for HLA-C*14:03. MFI values of cells cultured at 37°C for 3 h were 5.0 for HLA-C*14:02 and 6.54 for HLA-C*14:03. (B) Analysis of binding of 14 HIV-1 NL4.3 peptides identified by LC-MS/MS to HLA-C*14:02 (blue) or HLA-C*14:03 (red) as measured in HLA class I stabilization assays using RMA-S-C1402 or RMA-S-C1403 cells. (C) Analysis of binding of 9 additional variant peptides to HLA-C*14:02 (blue) or C*14:03 (red). For panels B and C, peptides were tested at a concentration of 100 μM. Results are plotted as percent surface HLA-I expression relative to that at 26°C, calculated as the ratio of the MFI of peptide-pulsed RMA-S-C1402 or RMA-S-C1403 cells to that of control (non-peptide-pulsed) cells kept at 26°C, multiplied by 100. Means and standard deviations (SDs) from triplicate assays are shown. Statistical analyses were performed by unpaired t test. The P values were corrected for multiple testing. *, P < 0.05 and q < 0.05; **, P < 0.01 and q < 0.03; ***, P < 0.001 and q < 0.005.\n(§3) The relative affinity of peptide binding to HLA-C*14:02 and -C*14:03 was examined using RMA-S-C1402 and RMA-S-C1403 cells as previously described ([15]). Briefly, RMA-S cells were cultured at 26°C for 16 h, pulsed with peptides at 26°C for 1 h, and subsequently incubated at 37°C for 3 h. Staining of cell surface HLA-C molecules was performed with the HLA-C-reactive monoclonal antibody (MAb) DT-9 ([48]), a gift from Mary Carrington, NIH, and fluorescein isothiocyanate (FITC)-conjugated sheep anti-mouse IgG (Jackson ImmunoResearch). Staining data were acquired on a FACSCanto II instrument (BD Biosciences) and analyzed using FlowJo 10.7.1 software. Relative HLA expression was calculated as the ratio of the mean fluorescence intensity (MFI) of peptide-pulsed RMA-S-C1402 cells or RMA-S-C1403 cells to that of control (non-peptide-pulsed) cells kept at 26°C, multiplied by 100 to express the values for peptide-pulsed cells as a percentage of that for the control cells at 26°C.", "values": [
      {"sequence": "FMTKALGI [Tat FI8, HIV-1 NL4-3 Tat 38–45 peptide FMTKALGI]", "binding to HLA-C*14:02 (stabilization of surface HLA expression)": "did not exhibit detectable binding"},
      {"sequence": "ASGYIEAEV [Pol AV9, HIV-1 NL4-3 Pol 795–803 peptide …]", "binding to HLA-C*14:02 (stabilization of surface HLA expression)": "did not exhibit detectable binding"},
      {"sequence": "VYYDPSKDL [Pol VYL9, HIV-1 NL4-3 Pol 472–480 peptide …]", "binding to HLA-C*14:02 (stabilization of surface HLA expression)": "low"},
      {"sequence": "FLGAAGSTM [Env FM9, HIV-1 NL4-3 Env 522–530 peptide …]", "binding to HLA-C*14:02 (stabilization of surface HLA expression)": "did not exhibit detectable binding"},
      {"sequence": "RFDSRLAF [Nef RF8, HIV-1 NL4-3 Nef 184–191 peptide RFDSRLAF]", "binding to HLA-C*14:02 (stabilization of surface HLA expression)": "did not exhibit detectable binding"},
      {"sequence": "FFREDLAF [Pol FF8, HIV-1 NL4-3 Pol 1–8 peptide FFREDLAF]", "binding to HLA-C*14:02 (stabilization of surface HLA expression)": "low"}
    ]},
    {"target": "HLA-C*14:02 (Homo sapiens, UniProt P10321, A176E/A330V/A35S/A97T/C350S/D114A/D33S/L171W/L180R/L218V/M285V/M309V/M331V/P208H/Q277E/Q291P/R121W/R243W/S123F/S297R/S48A/T329A/T363A/V319A)", "experiment": "HLA stabilization assay on RMA-S-C1402 cells", "assay_type": "cell-based", "conditions": "peptide concentrations from 0.1 to 100 μM, 6 epitope peptides compared", "description": "as §1, §2, §3", "values": [
      {"sequence": "AFHHVAREL [Nef AL9]", "relative affinity in hierarchy of peptide-HLA-C*14 binding (HLA-C*14:02)": "lowest"},
      {"sequence": "AFSPEVIPM [Gag AM9]", "relative affinity in hierarchy of peptide-HLA-C*14 binding (HLA-C*14:02)": "highest"}
    ]}
  ]
}
